Data taken from US20170290774A1, “NEUROKININ-1 RECEPTOR ANTAGONIST COMPOSITION FOR TREATMENT OF DISEASES AND CONDITIONS OF THE RESPIRATORY TRACT” (PLUS VITECH, S.L., priority 2014, published 2017).

Key:
Format in all cases: physicochemical
Settings in all cases: 25° C.
[1] = Saturation concentration in different oils (soy, sunflower, rapeseed)
Protocol: (§1) Each of said mixtures was continuously and gently stirred for 10 minutes at ambient temperature (25° C.) and then maintained at rest for 60 minutes. The saturation concentration was considered to be that which was immediately less than a concentration where deposition was observed, but in which no deposition of the active ingredient was observed.

[2] = Saturation concentration of NK1 receptor antagonists in olive oil
Protocol: as §1, with “lower in the aforementioned series” for “less”

[3] = Saturation concentration in olive oil:ethanol (9:1)
Protocol: as §1

Row | Structure (SMILES) | Saturation concentration ([1]; Rapeseed oil) | Saturation concentration ([1]; Soy oil) | Saturation concentration ([1]; Sunflower oil) | Saturation concentration [2] | Saturation concentration [3]
1 | CC(=O)N[C@@H](Cc1c[nH]c2ccccc12)C(=O)OCc1cc(C(F)(F)F)cc(C(F)(F)F)c1 [L-732,138] | 90 nM | 90 nM | 80 nM | 80 nM | 100 nM
2 | CC(=O)N1CCN([C@H]2CCN(C(=O)N(C)[C@H](C)c3cc(C(F)(F)F)cc(C(F)(F)F)c3)[C@@H](c3ccc(F)cc3C)C2)CC1 [Casopitant] | 70 nM | 60 nM | 60 nM | 40 nM | 65 nM
